From patent US10947196B2, “Beta adrenergic agonist and methods of using the same” (CURASEN THERAPEUTICS, INC., priority 2019, dated 2021)
Like-named read-outs stand apart in the source and are kept apart here. Blank lines part the entries; values can stand above or below the molecule they belong to.

How the values were obtained:
[1] = Dog pharmacokinetic studies; format: in vivo, male Beagle dogs; conditions: for AUC(0-inf) / Cmax / MRT / Tmax: male, Beagle
Protocol: (§1) The rat pharmacokinetics studies of exemplary compounds 03-3, 03-5, and 03-115 were conducted with male SD rats. These rats were typically about 6-8 weeks old, weighing 200 g to 300 g. Animals were fasted overnight and free access to food 4 hours after dosing. A required volume of vehicle was added to reach the target concentration of the test article and vehicle component to prepare for the dosing. The dosing vehicle was PEG400 or 30% PEG400 in saline for IV, or 0.5% methylcellulose in water for PO. For IV dosing, the animals were administered intravenously via tail vein. For PO dosing, the animals were administered via oral gavage. After dosing, blood sample was collected (˜0.2 mL per time point) through jugular vein or heart puncture. Blood of each sample was transferred into plastic micro centrifuge tubes containing EDTA-K2. Collection tubes with blood samples and anticoagulant were inverted several times for proper mixing of the tube contents and then placed on wet ice. The blood samples were centrifuged at 2000 g for 5 minutes at 4° C. to obtain plasma which was stored in a freezer at −75±15° C. prior to analysis. Samples were analyzed using LC-MS/MS. WinNonlin were used for pharmacokinetic calculations.
Dog pharmacokinetics studies of exemplary compounds 03-3, 03-5, and 03-115 were conducted substantially similarly to the rat pharmacokinetic studies, instead using male Beagle dogs. Animals for PO studies were food fasted overnight prior to dosing and were fed approximately 2 hours after dosing. Animals for IV studies had free access to food and water. Blood samples were collected through venipuncture of peripheral veins except the dosing vein.

[2] = Plasma protein binding, equilibrium dialysis (human); format: in vitro ADME; conditions: pH 7.4, equilibrium dialysis 6 hours, read-out: PPB (human), percent of unbound fraction
[3] = Rat pharmacokinetic studies; format: in vivo, male SD rats; parameters: AUClast/D: unit not given here; conditions: for AUC(0-t) / AUC(0-inf) / C0 / half-life / MRT inf / Vd / Cmax / Tmax: male, SD; for MRT inf: read-out: MRTInf—obs; for Vd: read-out: Vss—obs
Protocol: as §1

[4] = Hepatocyte stability (monkey); format: in vitro ADME; conditions: 0.5×10^6 viable cells/mL
Protocol: (§2) 10 mM and 100 μM stock solutions of test compound(s) and a positive control were prepared in appropriate solvent (DMSO). In separate conical tubes, the 10 mM test compound and the positive control were diluted to 100 μM by combining 198 μL of 50% acetonitrile/50% water and 2 μL of 10 mM stock. The 100 μM test compound and the positive control were diluted to 30 μM by combining 140 μL of 50% acetonitrile/50% water and 60 μL of 100 μM stock solution. The 100 μM test compound and the positive control were diluted to 10 μM by combining 180 μL of 50% acetonitrile/50% water and 20 μL of 100 μM stock solution. The 100 μM test compound and the positive control were diluted to 3 μM by combining 194 μL of 50% acetonitrile/50% water and 6 μL of 100 μM stock solution.
(§3) Incubation medium (William's E Medium supplemented with GlutaMAX) and hepatocyte thawing medium was placed in a 37° C. water bath, and allowed to warm for at least 15 minutes prior to use. […]
(§4) Using AOPI staining solution, cells were counted and the viable cell density was determined. […]
(§5) All calculations were carried out using Microsoft Excel. Peak areas were determined from extracted ion chromatograms. […]
(§6) The in vitro half-life (in vitro t1/2) was determined from the slope value: in vitro t1/2=0.693/k

[5] = Hepatocyte stability (mouse); format: in vitro ADME; conditions: 0.5×10^6 viable cells/mL
Protocol: as §2, §3, §4, §5, §6

Compound: CC(C)(C)NC[C@H](O)c1cccc(C(F)(F)F)n1 [Compound 03-3]
F ([1]; PO 1 mg/kg): 111% | F ([1]; PO 2.5 mg/kg): 194% | AUC(0-inf) ([1]; plasma, PO 1 mg/kg): 0.584 µg·h/mL | Cmax ([1]; plasma, PO 1 mg/kg): 0.227 µg/mL | MRT ([1]; plasma, PO 1 mg/kg): 1.93 h | Tmax ([1]; plasma, PO 1 mg/kg): 0.5 h | AUC(0-inf) ([1]; plasma, PO 2.5 mg/kg): 1.59 µg·h/mL | Cmax ([1]; plasma, PO 2.5 mg/kg): 0.413 µg/mL | MRT ([1]; plasma, PO 2.5 mg/kg): 3.19 h | Tmax ([1]; plasma, PO 2.5 mg/kg): 0.5 h | fraction unbound at 6 h, 1 μM [2]: 0.89 | AUClast/D ([3]; IV 1 mg/kg): 546 | AUC—% Extrap—obs ([3]; IV 1 mg/kg): 1.14% | Cl_obs ([3]; IV 1 mg/kg): 1.81 L/h/kg | AUClast/D ([3]; PO 5 mg/kg): 845 | AUC—% Extrap—obs ([3]; PO 5 mg/kg): 0.0970% | F ([3]; PO 5 mg/kg): 153% | AUC(0-t) ([3]; in vivo, IV 1 mg/kg): 0.546 µg·h/mL | AUC(0-inf) ([3]; plasma, IV 1 mg/kg): 0.552 µg·h/mL | C0 ([3]; plasma, IV 1 mg/kg): 0.388 µg/mL | half-life ([3]; plasma, IV 1 mg/kg): 1.28 h | MRT inf ([3]; plasma, IV 1 mg/kg): 1.61 h | Vd ([3]; plasma, IV 1 mg/kg): 2.92 L/kg | AUC(0-inf) ([3]; plasma, PO 5 mg/kg): 4.23 µg·h/mL | AUC(0-t) ([3]; plasma, PO 5 mg/kg): 4.22 µg·h/mL | Cmax ([3]; plasma, PO 5 mg/kg): 0.818 µg/mL | Tmax ([3]; plasma, PO 5 mg/kg): 1.17 h | half-life ([3]; plasma, PO 5 mg/kg): 2.44 h | MRT inf ([3]; plasma, PO 5 mg/kg): 3.93 h

F ([1]; PO 0.3 mg/kg): 72% | F ([1]; PO 1 mg/kg): 70% | AUC(0-inf) ([1]; plasma, PO 0.3 mg/kg): 0.0554 µg·h/mL | Cmax ([1]; plasma, PO 0.3 mg/kg): 0.0432 µg/mL | MRT ([1]; plasma, PO 0.3 mg/kg): 1.22 h | Tmax ([1]; plasma, PO 0.3 mg/kg): 0.42 h | AUC(0-inf) ([1]; plasma, PO 1 mg/kg): 0.273 µg·h/mL | Cmax ([1]; plasma, PO 1 mg/kg): 0.164 µg/mL | MRT ([1]; plasma, PO 1 mg/kg): 1.37 h | Tmax ([1]; plasma, PO 1 mg/kg): 0.33 h | fraction unbound at 6 h, 1 μM [2]: 1 | AUClast/D ([3]; IV 1 mg/kg): 461 | AUC—% Extrap—obs ([3]; IV 1 mg/kg): 0.457% | Cl_obs ([3]; IV 1 mg/kg): 2.24 L/h/kg | AUClast/D ([3]; PO 5 mg/kg): 450 | AUC—% Extrap—obs ([3]; PO 5 mg/kg): 4.10% | F ([3]; PO 5 mg/kg): 101% | AUC(0-inf) ([3]; plasma, IV 1 mg/kg): 0.463 µg·h/mL | AUC(0-t) ([3]; plasma, IV 1 mg/kg): 0.461 µg·h/mL | C0 ([3]; plasma, IV 1 mg/kg): 0.468 µg/mL | half-life ([3]; plasma, IV 1 mg/kg): 0.644 h | MRT inf ([3]; plasma, IV 1 mg/kg): 0.873 h | Vd ([3]; plasma, IV 1 mg/kg): 1.89 L/kg | AUC(0-inf) ([3]; plasma, PO 5 mg/kg): 2.34 µg·h/mL | AUC(0-t) ([3]; plasma, PO 5 mg/kg): 2.25 µg·h/mL | Cmax ([3]; plasma, PO 5 mg/kg): 0.717 µg/mL | Tmax ([3]; plasma, PO 5 mg/kg): 0.75 h | half-life ([3]; plasma, PO 5 mg/kg): 1.61 h | MRT inf ([3]; plasma, PO 5 mg/kg): 2.62 h
Compound: CC(C)(C)NC[C@H](O)c1cccc(C#N)n1 [Compound 03-5, (S)-6-(2-(tert-butylamino)-1-hydroxyethyl)picolinonitrile]
Hepatocyte stability, Monkey [4]: 1.88 μL/min/10^6 cells | Hepatocyte stability, Mouse [5]: 1.46 μL/min/10^6 cells

Compound: Cc1ncccc1[C@@H](O)CNC(C)(C)C [Compound 03-115]
F ([1]; PO 0.5 mg/kg): 53% | F ([1]; PO 1.5 mg/kg): 71% | AUC(0-inf) ([1]; in vivo, PO 0.5 mg/kg): 0.132 µg·h/mL | Cmax ([1]; in vivo, PO 0.5 mg/kg): 0.0723 µg/mL | MRT ([1]; in vivo, PO 0.5 mg/kg): 1.82 h | Tmax ([1]; in vivo, PO 0.5 mg/kg): 0.5 h | AUC(0-inf) ([1]; in vivo, PO 1.5 mg/kg): 0.537 µg·h/mL | Cmax ([1]; in vivo, PO 1.5 mg/kg): 0.387 µg/mL | MRT ([1]; in vivo, PO 1.5 mg/kg): 1.69 h | Tmax ([1]; in vivo, PO 1.5 mg/kg): 0.33 h | fraction unbound at 6 h, 1 μM [2]: 1 | Cl_obs ([3]; IV 1 mg/kg): 6.18 L/h/kg | F ([3]; PO 5 mg/kg): 23% | AUC(0-inf) ([3]; in vivo, IV 1 mg/kg): 0.164 µg·h/mL | C0 ([3]; in vivo, IV 1 mg/kg): 0.512 µg/mL | half-life ([3]; in vivo, IV 1 mg/kg): 0.36 h | Vd ([3]; in vivo, IV 1 mg/kg): 2.4 L/kg | AUC(0-inf) ([3]; in vivo, PO 5 mg/kg): 0.192 µg·h/mL | Cmax ([3]; in vivo, PO 5 mg/kg): 0.174 µg/mL | Tmax ([3]; in vivo, PO 5 mg/kg): 0.25 h | half-life ([3]; in vivo, PO 5 mg/kg): 1.61 h | MRT inf ([3]; in vivo, PO 5 mg/kg): 1.06 h | Hepatocyte stability, Monkey [4]: 1.26 μL/min/10^6 cells | Hepatocyte stability, Mouse [5]: 1.08 μL/min/10^6 cells
